Assay results published in EP3909969A1, “PEPTIDE FOR HYDROGEL FORMATION” (Freie Universität Berlin, priority 2020, dated 2021).

System: NIH/3T3 embryonic mouse fibroblast cells
Test: Cytotoxicity assay of hydrogel cultured cells by Cell Counting Kit-8 (CCK-8)
Format: cell-based
Conditions: hydrogel at 0.3 wt%, after 24 h, NIH/3T3 cells
Description: NIH/3T3 embryonic mouse fibroblast cells were cultured in DMEM culture medium (Lonza, 4,5 g/L glucose, 10 % FCS, 1 % penicillin/streptomycin) in a humidified incubator (5 % CO2, 37°C). The cells were grown in 175 cm^2 cell culture flaks and medium was changed thrice a week. Upon confluency of 70 % - 80 % the culture was subcultured according to the detected cell number.
To determine whether different peptide hydrogel compositions would be tolerated by the cells CCK-8 was used to conduct viability of cells during a 3 days cell culture. A suspension of NIH/3T3 cells in DMEM (4.5 g/L, 10 % FCS, 1 % penicillin/streptomycin) was seeded in a transparent 96-well plate with a density of 10.000 cells in an overall volume of 100 µL per well containing the respecting hydrogels. 10 µL of 1 % (w/v) SDS was added to the respective wells of positive control and the plate was further incubated for 24 h and 72 h at 37°C and 5 % CO2 respectively. After each time points 10 µL of CCK-8 solution were added to each well and allowed to incubate for 2 h in a humidified incubator at 37°C. During this time dehydrogenases in viable cells reduces WST-8 tetrazolium to formazan, which will be detected by measuring the absorbance at 450 nm. Absorbance was measured by using a Tecan Infinite 200 Pro microplate reader. Three experiments were performed in triplicates per hydrogel candidate (n=3). […]

With `CC(C)C[C@H](NC(=O)[C@H](CCC(=O)O)NC(=O)[C@H](CCCCN)NC(=O)[C@H](CCCCN)NC(=O)[C@H](CC(C)C)NC(=O)[C@H](C)NC(=O)[C@H](C)NC(=O)[C@H](CC(C)C)NC(=O)[C@H](CCC(=O)O)NC(=O)[C@H](CCCCN)NC(=O)[C@H](CCCCN)NC(=O)[C@H](CC(C)C)NC(=O)[C@H](C)NC(=O)[C@H](C)NC(=O)[C@H](CC(C)C)NC(=O)[C@H](CCC(=O)O)NC(=O)[C@H](CCCCN)NC(=O)[C@H](CCCCN)NC(=O)[C@H](CC(C)C)NC(=O)[C@H](C)NC(=O)[C@H](C)NC(=O)[C@H](CC(C)C)NC(=O)[C@H](CCC(=O)O)NC(=O)[C@H](CCCCN)NC(=O)[C@H](CCCCN)NC(=O)[C@H](CC(C)C)NC(=O)c1ccccc1N)C(=O)O` [hFF03] the “viability compared to the control” value was “higher than 160%”.
